Data on 10 molecules can be found in ChEMBL document CHEMBL1201862, “PubChem BioAssay data set” (2004).

Test systems include A498; RPMI-8226; HOP-62; SW-620; UACC-257; OVCAR-4; SF-539; KM12; K562; NCI-H460; SNB-19; DU-145; HCT-15; ACHN; OVCAR-8; MCF7; SK-MEL-2; CAKI-1; OVCAR-3; MDA-MB-231.
What all share (test): DTP human tumour cell line panel, 48 h

Structures are written as SMILES.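 Results reflect a 48-hour exposure of cells in 96-well plates to compound at five concentrations. GI50 = concentration required for 50% inhibition of growth.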 Calls of active or inactive are those of the source. No stated cut-off is given here; in the data, active = GI50 up to about 1.1 µM and inactive = higher.

For orientation: GI50 means the concentration at which growth is held to half of that of the control.

Turning to `Nc1nc(N)c(/N=N/c2ccc(C(=O)O)c(O)c2)c(N)n1`, the GI50 in the test with A498 was > 100 µM (inactive); in the test with RPMI-8226, > 100 µM (inactive); with HOP-62, > 100 µM (inactive); in the test with SW-620, > 100 µM (inactive); in the test on UACC-257, > 100 µM (inactive); with OVCAR-4 it was 18.5 µM (inactive). For the same molecule, the GI50 in the test on SF-539 was > 100 µM (inactive); in the test with KM12, > 100 µM (inactive); with K562, < 0.01 µM (active); with NCI-H460, > 100 µM (inactive); with SNB-19, > 100 µM (inactive); in the test with DU-145 it was > 100 µM (inactive). The GI50 was over 100 µM with HCT-15; > 100 µM (inactive) with ACHN; > 100 µM (inactive) in the test on OVCAR-8; 61.4 µM (inactive) with MCF7; > 100 µM (inactive) in the test on SK-MEL-2; > 100 µM (inactive) with CAKI-1. Further, the GI50 in the test on OVCAR-3 was 10.4 µM (inactive); in the test on MDA-MB-231, > 100 µM (inactive).

In the case of `O=C(NCCCc1cn[nH]c(=O)n1)c1cccc2nc3ccccc3nc12`, the GI50 in the test with A498 is > 100 µM (inactive); with RPMI-8226 it was > 100 µM (inactive); in the test on HOP-62 it was 47.8 µM (inactive); with SW-620, > 100 µM (inactive); in the test on UACC-257 it was > 100 µM (inactive); in the test on OVCAR-4, > 100 µM (inactive). The GI50 is > 100 µM (inactive) with SF-539; > 100 µM (inactive) in the test with KM12; > 100 µM (inactive) with K562; > 100 µM (inactive) in the test with NCI-H460; > 100 µM (inactive) in the test with SNB-19; 63 µM (inactive) in the test with DU-145. Moreover, the 50% growth inhibitory concentration (GI50) in the test on HCT-15 was over 100 µM; in the test on ACHN it was 31.6 µM (inactive); in the test on OVCAR-8, 61.9 µM (inactive); with MCF7, > 100 µM (inactive); in the test with SK-MEL-2, > 100 µM (inactive); with CAKI-1 it was > 100 µM (inactive). For the same molecule, the GI50 in the test with OVCAR-3 is > 100 µM (inactive); in the test on MDA-MB-231, 27.8 µM (inactive).

With `C/C(=N/CC(=O)O)c1ccccc1`, the GI50 in the test on A498, in the test on RPMI-8226, with HOP-62, in the test on SW-620, in the test with UACC-257 and in the test on OVCAR-4 was > 100 µM (inactive) in each case. Also, the GI50 in the test with SF-539, with KM12, in the test on K562, in the test with NCI-H460, with SNB-19 and in the test on DU-145 was > 100 µM (inactive) each time. For the same molecule, the GI50 was over 100 µM in the test with HCT-15; > 100 µM (inactive) with ACHN; > 100 µM (inactive) with OVCAR-8; > 100 µM (inactive) in the test on MCF7; > 100 µM (inactive) in the test on SK-MEL-2; > 100 µM (inactive) in the test with CAKI-1. In addition, the GI50 in the test with OVCAR-3 and in the test with MDA-MB-231 was > 100 µM (inactive) throughout.

`C[C@]12CC[C@H]3[C@@H](CCC4=C[C@@H](OC5OCC(OC6OC(CO)C(O)C(O)C6O)C(O)C5O)CC[C@@]43C=O)[C@@]1(O)CCC2C1=CC(=O)OC1` (stereo not given in full): the concentration for 50% growth inhibition (GI50) was 0.755 µM (active) in the test on A498; 0.628 µM (active) with RPMI-8226; 0.431 µM (active) in the test on HOP-62; 0.746 µM (active) with SW-620; 1.42 µM (inactive) with UACC-257; 0.237 µM (active) with OVCAR-4. For the same molecule, the concentration for 50% growth inhibition (GI50) with SF-539 is 0.391 µM (active); in the test on KM12, 2.71 µM (inactive); in the test on K562 it was 0.397 µM (active); in the test on NCI-H460 it was 0.0982 µM (active); in the test on SNB-19, 3.11 µM (inactive); in the test on DU-145 it was 0.435 µM (active). The concentration for 50% growth inhibition (GI50) was 0.504 µM in the test on HCT-15; 0.137 µM (active) with ACHN; 0.931 µM (active) in the test on OVCAR-8; 0.94 µM (active) in the test with MCF7; 1.62 µM (inactive) with SK-MEL-2; 0.347 µM (active) with CAKI-1. The GI50 with OVCAR-3 is 0.375 µM (active); in the test on MDA-MB-231 it was 3.02 µM (inactive).

As to `CCCCON1C[C@@H](O)C(O)[C@@H](O)C1` (stereo not given in full), the GI50 in the test on A498, in the test on RPMI-8226, with HOP-62, with SW-620, in the test on UACC-257 and in the test with OVCAR-4 was > 100 µM (inactive) in each case. Besides, the GI50 with SF-539, in the test on KM12, with K562, in the test with NCI-H460, in the test on SNB-19 and with DU-145 was > 100 µM (inactive) each time. Also, the GI50 is over 100 µM in the test on HCT-15; > 100 µM (inactive) in the test with ACHN; > 100 µM (inactive) in the test on OVCAR-8; > 100 µM (inactive) with MCF7; > 100 µM (inactive) in the test on SK-MEL-2; > 100 µM (inactive) in the test on CAKI-1. Further, the GI50 in the test on OVCAR-3 and with MDA-MB-231 was > 100 µM (inactive) each time.

On to `O=C(O)Cn1ccnc1[N+](=O)[O-]`, for which the GI50 in the test with A498, in the test with RPMI-8226, with HOP-62, with SW-620, in the test on UACC-257 and with OVCAR-4 was > 100 µM (inactive) in each case. Moreover, the GI50 in the test on SF-539, in the test on KM12, in the test with K562, in the test with NCI-H460, in the test on SNB-19 and in the test with DU-145 was > 100 µM (inactive) each time. The GI50 with HCT-15 was over 100 µM; in the test with ACHN, > 100 µM (inactive); in the test on OVCAR-8 it was > 100 µM (inactive); with MCF7, > 100 µM (inactive); with SK-MEL-2, > 100 µM (inactive); in the test with CAKI-1, > 100 µM (inactive). The GI50 in the test with OVCAR-3 and in the test on MDA-MB-231 was > 100 µM (inactive) throughout.

In the case of `O=[N+]([O-])/C=C/c1cn(CCCCCn2cc(/C=C/[N+](=O)[O-])c3ccccc32)c2ccccc12`, the GI50 in the test with A498 is 1.94 µM (inactive); in the test on RPMI-8226, 0.24 µM (active); in the test on HOP-62, 3.93 µM (inactive); with SW-620, 0.682 µM (active); in the test on UACC-257, 3.27 µM (inactive); with OVCAR-4, 2.44 µM (inactive). Also, the GI50 in the test with SF-539 was 1.88 µM (inactive); in the test on KM12, 1.69 µM (inactive); with K562, 0.83 µM (active); with NCI-H460, 1.79 µM (inactive); in the test on SNB-19, 6.73 µM (inactive); in the test on DU-145, 2.19 µM (inactive). Besides, the GI50 with HCT-15 was 2.17 µM; with ACHN it was 4.66 µM (inactive); in the test on OVCAR-8 it was 3.27 µM (inactive); in the test on MCF7, 0.408 µM (active); in the test on SK-MEL-2, 13.5 µM (inactive); in the test on CAKI-1, 17.7 µM (inactive). The GI50 with OVCAR-3 is 1.78 µM (inactive); in the test on MDA-MB-231, 1.95 µM (inactive).

Take `CCOC1=C/C(=N\Nc2ccc([N+](=O)[O-])cc2)CCC1`: the GI50 is 26.3 µM (inactive) in the test with A498; 14.9 µM (inactive) in the test on RPMI-8226; 37.5 µM (inactive) with HOP-62; 14.8 µM (inactive) with SW-620; 63.8 µM (inactive) in the test with UACC-257; 13.8 µM (inactive) with OVCAR-4. Moreover, the GI50 in the test on SF-539 was 48.1 µM (inactive); in the test with KM12, 14.3 µM (inactive); with K562, 18.9 µM (inactive); with NCI-H460 it was 25.4 µM (inactive); in the test with SNB-19, 34.7 µM (inactive); in the test on DU-145, > 100 µM (inactive). Moreover, the GI50 with HCT-15 is 7.94 µM; in the test with ACHN, 12.3 µM (inactive); with OVCAR-8, 16.4 µM (inactive); in the test with MCF7 it was 18.3 µM (inactive); in the test with SK-MEL-2 it was 21.5 µM (inactive); in the test on CAKI-1, 28.8 µM (inactive). For the same molecule, the GI50 was 29.9 µM (inactive) in the test with OVCAR-3 and 27.9 µM (inactive) in the test on MDA-MB-231.

On to `CCOC(CNCCC(=O)OC)OCC`, for which the GI50 in the test with A498, in the test on RPMI-8226, in the test on HOP-62, in the test on SW-620, in the test with UACC-257 and in the test on OVCAR-4 was > 10 µM (inactive) each time. The GI50 with SF-539, in the test on KM12, in the test on K562, in the test on NCI-H460, in the test with SNB-19 and in the test on DU-145 was > 10 µM (inactive) each time. Also, the GI50 is over 10 µM in the test on HCT-15; > 10 µM (inactive) in the test with ACHN; > 10 µM (inactive) with OVCAR-8; > 10 µM (inactive) in the test with MCF7; > 10 µM (inactive) in the test on SK-MEL-2; > 10 µM (inactive) with CAKI-1. Besides, the GI50 in the test with OVCAR-3 and in the test with MDA-MB-231 was > 10 µM (inactive) in each case.

For `O=[N+]([O-])c1ccccc1S(=O)(=O)c1ccccc1[N+](=O)[O-]`, the GI50 in the test on A498 was > 87.7 µM (inactive); in the test on RPMI-8226 it was > 92.7 µM (inactive); with HOP-62, 34.9 µM (inactive); in the test with SW-620, > 56.2 µM (inactive); with UACC-257, > 100 µM (inactive); with OVCAR-4, > 100 µM (inactive). Moreover, the GI50 in the test on SF-539 is 54.8 µM (inactive); in the test on KM12 it was > 72.3 µM (inactive); in the test on K562, > 100 µM (inactive); in the test on NCI-H460, > 100 µM (inactive); in the test on SNB-19, 56.8 µM (inactive); in the test on DU-145 it was > 100 µM (inactive). For the same molecule, the GI50 is over 100 µM with HCT-15; > 90.8 µM (inactive) with ACHN; > 56.2 µM (inactive) with OVCAR-8; > 100 µM (inactive) with MCF7; > 100 µM (inactive) in the test on SK-MEL-2; > 100 µM (inactive) in the test on CAKI-1. The values for the GI50 with OVCAR-3 and in the test with MDA-MB-231 were > 100 µM (inactive) and > 60.7 µM (inactive), respectively.
